The test system of test [1] is AOM-induced colon tumors. As to the kind of experiment: AOM-induced tumorigenesis with UA-containing diets. Format: in vivo, FVB mice. From the text:
Oral UA confers anti-tumor effects in murine colorectal cancer in a T-cell dependent manner. (FIG. 1A) Schematic representation of AOM model and different UA containing diets. (FIG. 1B) Representative images of swiss-roll sections from AOM-induced colon tumors. Scale bars are 2 mm (upper row) and 300 µm (lower row), respectively. (FIG. 1C) Tumor incidence of AOM-induced tumors receiving different UA-containing diets; n=4/5/5. Data are mean ±SD, depicting one of two independent experiments. *p < 0.05 by two-sided t-test. (FIG. 1D) Average lesion size of AOM-induced tumors receiving different UA-containing diets; n=4/5/5. Data are mean ±SD, depicting one of two independent experiments. *p < 0.05 by two-sided t-test. (FIG. 1E) Relative number of CD45^+CD3^+ T cells in colons of AOM-treated mice at week 24 (n>7, pooled from two independent experiments). Data are mean ± SD, **p < 0.01 by two-sided t-test. (FIG. 1F) Organoid treatment scheme. APTK-organoids were incubated in the presence of UA or DMSO for the indicated time points, prior to flow cytometric analysis. (FIG. 1G) Quantification of lysosome formation as assessed by lysotracker MFI via flow cytometry after 24 h incubation at the presence of various UA concentrations (n=5/4/4). Depicts one out of two indepdent experiments. Data are mean ± SD, *p < 0.05; **p < 0.01 as established via two-sided t-test. (FIG. 1H) Mitotracker signal of APTK organoids incubated for 24 h at the presence of UA in vitro (n=4/4/4) and antigen presentation via MHC-I molecules (I) after 48 h of treatment (n=4/4/4). Results from one out of two independent experiments are shown. Data are mean ± SD, statistical analysis was performed via two-sided t-test, *p < 0.05; **p < 0.01, ****p < 0.0001. (FIG. 1I) Upregulation of MHC-I by UA. (FIG. 1J) Experimental setup of oral UA administration in mice with established APTK-s.c. tumors. Treatment diet was initiated eleven days after tumor injection and maintained until the end of the experiment. (FIG. 1K) Growth curve of mice subcutaneously transplanted with APTK tumors, receiving either UA-containing or control food (n=7 per group). Data are mean ± SD, ***p <0.001 by two-sided t-test. One out of two independent experiments are shown. (FIG. 1L) End point tumor weight, (FIG. 1M) CD8+ T cell infiltration in APTK-s.c. tumors assessed by flow cytometry, normalising total number of CD8^+ T cells to tumor weight (n=7 per group). Data are mean ± SD, statistical analysis was performed via Mann-Whitney test, *p < 0.05 and ***p <0.001. (FIG. 1N) Size of subcutaneous APTK tumors in Rag1^-/- mice receiving UA-containing or control food (n=7 per group). Treatment was initiated as depicted in FIG. 1J. Data are mean +-SD, depicting one out of two independent experiments. […]

Test [2] has as its system NALM-6 leukemia cells. As to the kind of experiment: Killing of NALM-6 cells by CD19-CAR T cells. In kind it is cell-based, human. The note with it: 24 h co-culture.
Where [3] appears, read: high-dose UA diet (2.28 g/kg), 18 weeks.

For `O=c1oc2cc(O)ccc2c2ccc(O)cc12` [Urolithin A], in test [1] (setting [3]), the tumor incidence entry is given as “significant decrease” and the tumor size result is “significant decrease”. Besides, in test [1] (high-dose UA diet, colons at week 24), the “infiltration of CD3+ T cells” value is recorded as “increased infiltration of CD3^+T cells”. Moreover, in test [1] (low-dose UA diet (0.57 g/kg), 18 weeks), the tumor load result is “did not have an effect on tumor load”. In test [2], the “CD19 CAR-T cell mediated killing of NALM-6 leukemia cells” value is reported as “did not have a negative impact”.

(Values after US20230277669A1, “USES OF UROLITHINS” (Amazentis SA, priority 2022, published 2023).)
